The target in the experiment is T1, Cav2.2 (Homo sapiens, UniProt Q00975).
T1 construct: expressed in transfected cells; host or cells: HEK-293T/17 (transient, FuGENE 6)
The experiment in a line: HEK assay (whole-cell patch clamp, transiently transfected HEK-293T/17 cells, pulses P1 and P5). The format is cell-based. As to conditions: holding potential −100 mV. As to the method:
HEK-293T/17 cells were transiently transfected in a similar manner as described in FuGENE 6 Package Insert Version 7, April 2002, Roche Applied Science, Indianapolis, Ind. The cells were plated at 2.5×10^5 cells in 2 mL in a 6-well plate, incubated for one night, and achieved a ˜30-40% confluence. In a small sterile tube, sufficient serum-free medium was added as diluent for FuGENE Transfection Reagent (Roche Applied Science, Indianapolis, Ind.) to a total volume of 100 μL. To this medium was added 3 μL of FuGENE 6 Reagent. The mixture was tapped gently to mix. To the prediluted FuGENE 6 Reagent was added 2 μg of DNA solution (0.8-2.0 μg/μL). The DNA/Fugene 6 mixture was gently pipeted to mix the contents and incubated for about 15 minutes at room temperature. The complex mixture was then added to the HEK-293T/17 cells, distributed around the well, and swirled to ensure even dispersal. The cells were returned to the incubator for 24 hours. The transfected cells were then replated at density 2.5×10^5 in a 35 mm dish with 5 glass coverslips and grew in low serum (1%) media for 24 hours. Coverslips with isolated cells were then transferred into a chamber, and calcium channel (e.g., L-type, N-type, etc.) current or other currents for counter screening were recorded from the transiently transfected HEK-293T/17 cells.
The whole-cell voltage clamp configuration of the patch clamp technique was employed to evaluate voltage-dependent calcium currents essentially as described by Thompson and Wong (1991), J. Physiol., 439: 671-689, the entire disclosure of which is herein incorporated by reference. To record calcium channel (e.g., L-type, N-type, etc.) currents for evaluation of inhibitory potency of compounds (steady-state concentration-response analysis), five pulses of 20-30 ms voltage steps to about +10 mV (the peak of the current voltage relationship) were delivered at five Hz every 30 second from a holding potential at −100 mV. In order to obtain an estimate of the degree of use-dependent block of the test compounds, IC50 values were determined at the first and fifth pulse of the train (P1 and P5, respectively, in Table 2). Compound evaluations were carried out essentially as described by Sah D. W. and Bean B. P. (1994), Mol. Pharmacol., 45:84-92, the entire disclosure of which is herein incorporated by reference.
On the technique in general: In patch-clamp work, channel activity is measured electrically.

Setting [1] is: fifth pulse (P5) of 5 Hz train, read-out: HEK Cav2.2 P5 IC50.
[2] abbreviates: first pulse (P1) of 5 Hz train, read-out: HEK Cav2.2 P1 IC50.

The structures appear in SMILES notation. Read-outs that look alike come from different tables or passages of the source.

T1 sequence (Q00975 whole entry): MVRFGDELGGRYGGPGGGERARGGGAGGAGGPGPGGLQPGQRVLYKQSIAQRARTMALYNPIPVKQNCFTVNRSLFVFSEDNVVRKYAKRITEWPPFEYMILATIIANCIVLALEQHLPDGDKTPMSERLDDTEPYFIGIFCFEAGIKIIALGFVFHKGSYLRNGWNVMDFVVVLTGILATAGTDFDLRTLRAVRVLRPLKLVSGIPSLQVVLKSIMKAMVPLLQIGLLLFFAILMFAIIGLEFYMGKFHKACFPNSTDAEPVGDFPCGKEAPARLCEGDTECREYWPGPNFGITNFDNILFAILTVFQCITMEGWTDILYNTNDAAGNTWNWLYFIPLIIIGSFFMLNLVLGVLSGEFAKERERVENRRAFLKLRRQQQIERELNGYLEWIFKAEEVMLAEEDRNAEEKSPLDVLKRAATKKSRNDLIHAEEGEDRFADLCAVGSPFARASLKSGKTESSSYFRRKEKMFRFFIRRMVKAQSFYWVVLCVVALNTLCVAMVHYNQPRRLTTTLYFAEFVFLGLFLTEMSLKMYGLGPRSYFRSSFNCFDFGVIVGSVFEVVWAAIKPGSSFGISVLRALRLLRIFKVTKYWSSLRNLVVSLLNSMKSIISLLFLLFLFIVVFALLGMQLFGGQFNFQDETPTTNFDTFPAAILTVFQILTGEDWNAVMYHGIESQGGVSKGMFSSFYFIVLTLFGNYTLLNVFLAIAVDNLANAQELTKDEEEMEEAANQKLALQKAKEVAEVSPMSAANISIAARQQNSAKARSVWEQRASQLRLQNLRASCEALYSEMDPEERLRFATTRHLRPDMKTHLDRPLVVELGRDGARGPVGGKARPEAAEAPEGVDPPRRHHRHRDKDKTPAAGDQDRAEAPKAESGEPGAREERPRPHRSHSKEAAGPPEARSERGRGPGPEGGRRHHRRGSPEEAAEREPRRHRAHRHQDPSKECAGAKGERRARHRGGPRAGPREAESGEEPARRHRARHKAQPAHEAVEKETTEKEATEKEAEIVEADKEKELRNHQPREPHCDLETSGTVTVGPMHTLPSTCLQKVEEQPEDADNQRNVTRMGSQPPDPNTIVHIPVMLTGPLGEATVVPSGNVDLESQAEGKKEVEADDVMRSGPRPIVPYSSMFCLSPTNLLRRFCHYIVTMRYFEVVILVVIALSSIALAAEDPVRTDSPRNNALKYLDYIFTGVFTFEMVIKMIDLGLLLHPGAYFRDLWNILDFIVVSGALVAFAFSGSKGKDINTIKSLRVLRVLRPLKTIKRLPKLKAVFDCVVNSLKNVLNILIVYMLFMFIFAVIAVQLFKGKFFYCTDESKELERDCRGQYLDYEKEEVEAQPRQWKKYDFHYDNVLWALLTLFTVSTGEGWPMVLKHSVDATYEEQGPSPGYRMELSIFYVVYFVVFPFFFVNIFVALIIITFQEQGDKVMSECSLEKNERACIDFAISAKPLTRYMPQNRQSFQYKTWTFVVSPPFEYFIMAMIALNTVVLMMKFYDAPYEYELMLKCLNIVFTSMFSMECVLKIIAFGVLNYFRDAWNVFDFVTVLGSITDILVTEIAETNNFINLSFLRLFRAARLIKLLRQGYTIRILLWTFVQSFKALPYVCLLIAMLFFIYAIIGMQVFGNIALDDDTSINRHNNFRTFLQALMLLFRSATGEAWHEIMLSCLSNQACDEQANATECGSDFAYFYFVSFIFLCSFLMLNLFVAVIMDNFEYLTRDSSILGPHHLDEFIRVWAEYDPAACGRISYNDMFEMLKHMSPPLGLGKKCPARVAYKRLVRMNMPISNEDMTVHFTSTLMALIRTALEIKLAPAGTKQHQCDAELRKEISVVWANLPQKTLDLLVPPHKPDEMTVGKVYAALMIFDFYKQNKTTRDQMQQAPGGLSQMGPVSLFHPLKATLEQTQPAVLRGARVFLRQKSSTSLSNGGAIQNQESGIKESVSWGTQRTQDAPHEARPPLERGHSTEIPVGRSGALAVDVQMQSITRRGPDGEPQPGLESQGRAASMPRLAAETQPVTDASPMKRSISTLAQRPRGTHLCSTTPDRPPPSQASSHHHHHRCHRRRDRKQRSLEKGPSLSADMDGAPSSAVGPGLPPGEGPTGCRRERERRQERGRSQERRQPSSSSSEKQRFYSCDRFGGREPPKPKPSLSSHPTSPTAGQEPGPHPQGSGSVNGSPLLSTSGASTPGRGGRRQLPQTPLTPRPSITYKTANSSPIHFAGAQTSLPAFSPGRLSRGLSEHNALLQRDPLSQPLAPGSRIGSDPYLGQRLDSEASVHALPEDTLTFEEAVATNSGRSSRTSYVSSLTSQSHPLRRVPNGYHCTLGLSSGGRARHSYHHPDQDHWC
T1 sequence (P54284 whole entry partner): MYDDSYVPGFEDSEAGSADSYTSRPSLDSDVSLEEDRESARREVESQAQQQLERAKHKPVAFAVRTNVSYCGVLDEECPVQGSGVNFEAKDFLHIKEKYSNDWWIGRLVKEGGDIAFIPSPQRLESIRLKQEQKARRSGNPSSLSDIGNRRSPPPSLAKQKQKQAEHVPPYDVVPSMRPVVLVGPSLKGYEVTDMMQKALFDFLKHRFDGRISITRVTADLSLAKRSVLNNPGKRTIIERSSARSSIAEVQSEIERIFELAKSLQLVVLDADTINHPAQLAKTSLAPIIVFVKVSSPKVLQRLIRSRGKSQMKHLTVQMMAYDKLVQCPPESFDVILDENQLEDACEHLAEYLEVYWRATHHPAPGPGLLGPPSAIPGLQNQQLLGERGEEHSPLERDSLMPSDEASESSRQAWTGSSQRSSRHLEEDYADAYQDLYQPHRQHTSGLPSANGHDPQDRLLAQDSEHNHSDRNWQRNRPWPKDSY
T1 sequence (P54289 25-946 partner limits assumed): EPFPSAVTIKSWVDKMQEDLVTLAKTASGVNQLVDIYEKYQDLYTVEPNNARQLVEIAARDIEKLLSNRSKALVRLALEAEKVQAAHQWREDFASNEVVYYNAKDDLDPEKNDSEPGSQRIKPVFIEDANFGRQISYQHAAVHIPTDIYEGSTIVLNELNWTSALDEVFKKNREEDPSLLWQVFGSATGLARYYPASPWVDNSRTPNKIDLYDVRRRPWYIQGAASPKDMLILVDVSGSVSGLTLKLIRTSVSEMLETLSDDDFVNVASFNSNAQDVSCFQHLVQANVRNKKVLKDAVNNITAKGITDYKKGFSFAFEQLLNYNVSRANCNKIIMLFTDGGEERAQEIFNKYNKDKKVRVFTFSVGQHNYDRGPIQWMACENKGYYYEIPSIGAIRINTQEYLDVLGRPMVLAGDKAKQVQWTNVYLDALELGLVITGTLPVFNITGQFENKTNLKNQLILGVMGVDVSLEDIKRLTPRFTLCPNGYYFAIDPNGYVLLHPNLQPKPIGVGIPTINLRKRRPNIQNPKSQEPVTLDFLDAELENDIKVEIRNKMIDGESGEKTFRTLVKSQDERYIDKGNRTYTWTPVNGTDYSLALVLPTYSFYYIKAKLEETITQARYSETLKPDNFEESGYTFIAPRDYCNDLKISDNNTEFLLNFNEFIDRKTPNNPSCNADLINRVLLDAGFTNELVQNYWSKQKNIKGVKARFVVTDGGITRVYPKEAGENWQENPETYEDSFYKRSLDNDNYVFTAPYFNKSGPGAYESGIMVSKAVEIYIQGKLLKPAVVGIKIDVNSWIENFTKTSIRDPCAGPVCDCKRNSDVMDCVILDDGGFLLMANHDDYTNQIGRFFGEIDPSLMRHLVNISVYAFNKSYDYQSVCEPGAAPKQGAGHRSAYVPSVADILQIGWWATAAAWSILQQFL
T1 sequence (P54289 947-1103 partner limits assumed): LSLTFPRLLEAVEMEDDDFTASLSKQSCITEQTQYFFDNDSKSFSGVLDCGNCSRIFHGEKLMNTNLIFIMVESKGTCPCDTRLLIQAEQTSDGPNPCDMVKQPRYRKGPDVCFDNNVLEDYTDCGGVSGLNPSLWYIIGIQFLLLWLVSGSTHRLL

For `CC(C)(C)C(=O)N(Cc1ccc(N2CCC(c3nc4ccccc4[nH]3)CC2)nc1)c1ccc(F)cc1` [Compound 53, N-[4-(1H-Benzoimidazol-2-yl)-3,4,5,6-tetrahydro-2H-[1,2′]bipyridinyl-5′-ylmethyl]-N-(4-fluorophenyl)-2,2-dimethyl-propionamide], the IC50 amounted to 300 nM under setting [1] and 600 nM under setting [2].

Consider `CCN(CC)c1ccc(CN(C(=O)C(C)(C)n2cc(CN(C)C)nn2)c2ccc(F)cc2)cn1` [Compound 54, N-(6-Diethylamino-pyridin-3-ylmethyl)-2-(4-dimethylaminomethyl-[1,2,3]triazol-1-yl)-N-(4-fluorophenyl)-isobutyramide], for which the IC50 was determined as 5300 nM under setting [1] and 8900 nM under setting [2].

In the case of `CC(C)(C)C(=O)N(Cc1ccc(N2CC[C@@H](Oc3ccccn3)C2)nc1)c1ccc(F)cc1` [Compound 55, N-(4-Fluorophenyl)-2,2-dimethyl-N-{6-[3-(pyridin-2-yloxy)-pyrroldiin-1-yl]-pyridin-3-ylmethyl}-propionamide], the IC50 is 600 nM under setting [1] and 1700 nM under setting [2].

For `CNC1CCN(c2ccc(CN(C(=O)C(C)(C)C)c3ccc(F)cc3)cn2)C1` (stereo not shown) [Compound 56, N-(4-Fluorophenyl)-2,2-dimethyl-N-[6-(3-methylamino-pyrrolidin-1-yl)-pyridin-3-ylmethyl]-propionamide], the IC50 is 2800 nM under setting [1] and 6000 nM under setting [2].

Take `CCN(CCc1cccnc1)c1ccc(CN(C(=O)C(C)(C)C)c2ccc(F)cc2)cn1` [Compound 58, N-{6-[Ethyl-(2-pyridin-3-yl-ethyl)-amino]-pyridin-3-ylmethyl}-N-(4-fluorophenyl)-2,2-dimethyl-propionamide]: the IC50 under setting [1] turned out to be 900 nM and the IC50 under setting [2] amounted to 4900 nM.

Turning to `CC(C)(C)C(=O)N(Cc1ccc(NCCc2cccnc2)nc1)c1ccc(F)cc1` [Compound 59, N-(4-Fluorophenyl)-2,2-dimethyl-N-[6-(2-pyridin-3-yl-ethylamino)-pyridin-3-ylmethyl]-propionamide], the IC50 runs as follows: under setting [1], 3800 nM; under setting [2], 29100 nM.

As for `CCN(CC)c1ccc(CN(C(=O)C(C)(C)n2cc(Cc3ccccc3)nn2)c2ccc(F)cc2)cn1` [Compound 63, 2-(4-Benzyl-[1,2,3]triazol-1-yl)-N-(6-diethylamino-pyridin-3-ylmethyl)-N-(4-fluorophenyl)-isobutyramide], the IC50 was 700 nM under setting [1] and 2700 nM under setting [2].

On to `CN(c1ccccc1)c1nc(CN(C(=O)C(C)(C)C)c2ccc(F)cc2)cs1` [Compound 65, N-(4-Fluorophenyl)-2,2-dimethyl-N-[2-(methyl-phenyl-amino)-thiazol-4-ylmethyl]-propionamide], for which the IC50 reads like this: under setting [1], 600 nM; under setting [2], 1800 nM.

For the molecule `CN(Cc1ccco1)c1ccc(CN(C(=O)C(C)(C)C)c2ccc(F)cc2)cn1` [Compound 66, N-(4-Fluorophenyl)-N-[6-(furan-2-ylmethyl-methyl-amino)-pyridin-3-ylmethyl]-2,2-dimethyl-propionamide], the IC50 by setting is: under setting [1], 1100 nM; under setting [2], 3500 nM.

For the molecule `CC(C)(C)Nc1ccc(CN(C(=O)C(C)(C)C)c2ccc(F)cc2)cn1` [Compound 67, N-(6-tert-Butylamino-pyridin-3-ylmethyl)-N-(4-fluorophenyl)-2,2-dimethyl-propionamide], the IC50 was found to be 3700 nM under setting [1] and 9300 nM under setting [2].

On to `COc1ccc(OCc2nc(CN(C(=O)C(C)(C)C)c3ccc(F)cc3)cs2)cc1` [Compound 68, N-(4-Fluorophenyl)-N-[2-(4-methoxy-phenoxymethyl)-thiazol-4-ylmethyl]-2,2-dimethyl-propionamide], for which the 50% inhibitory concentration (IC50) is, setting by setting: under setting [1], 1200 nM; under setting [2], 3200 nM.

For the molecule `CC(C)c1cccc(N(Cc2csc(N3CCCCC3)n2)C(=O)C(C)(C)C)c1` [Compound 71, N-(3-Isopropyl-phenyl)-2,2-dimethyl-N-(2-piperidin-1-yl-thiazol-4-ylmethyl)-propionamide], the IC50 was determined as 500 nM under setting [1] and 2400 nM under setting [2].

As for `CCC(C)(C)C(=O)N(Cc1csc(N2CCOCC2)n1)c1ccc(F)cc1` [Compound 73, N-(4-Fluorophenyl)-2,2-dimethyl-N-(2-morpholin-4-yl-thiazol-4-ylmethyl)-butyramide], the IC50 is, setting by setting: under setting [1], 8500 nM; under setting [2], 33800 nM.

`CN(c1ccc(CN(C(=O)C(C)(C)C)c2ccc(F)cc2)cn1)C1CC1` [Compound 74, N-[6-(Cyclopropyl-methyl-amino)-pyridin-3-ylmethyl]-N-(4-fluorophenyl)-2,2-dimethyl-propionamide]: the IC50 under setting [1] was 2800 nM and the IC50 under setting [2] worked out at 12800 nM.

For `CC(C)(C)C(=O)N(Cc1csc(-c2ccncc2)n1)c1ccc(F)cc1` [Compound 75, N-(4-Fluorophenyl)-2,2-dimethyl-N-(2-pyridin-4-yl-thiazol-4-ylmethyl)-propionamide], the IC50 worked out at 11000 nM under setting [1] and 47300 nM under setting [2].

On to `CN1CCN(c2ncc(CN(C(=O)C(C)(C)C)c3ccc(F)cc3)s2)CC1` [Compound 76, N-(4-Fluorophenyl)-2,2-dimethyl-N-[2-(4-methyl-piperazin-1-yl)-thiazol-5-ylmethyl]-propionamide], for which the IC50 came out at 5200 nM under setting [1] and 29000 nM under setting [2].

Take `CC(C)(C)C(=O)N(Cc1csc(N2CCCC2)n1)c1ccc(F)cc1` [Compound 77, N-(4-Fluorophenyl)-2,2-dimethyl-N-(2-pyrrolidin-1-yl-thiazol-4-ylmethyl)-propionamide]: the half-inhibitory concentration (IC50) under setting [1] was 2600 nM and the IC50 under setting [2] is 19100 nM.

With `CC(C)(C)C(=O)N(Cc1ccc(NC2CC2)nc1)c1ccc(F)cc1` [Compound 78, N-(6-Cyclopropylamino-pyridin-3-ylmethyl)-N-(4-fluorophenyl)-2,2-dimethyl-propionamide], the IC50 under setting [1] is 7200 nM and the IC50 under setting [2] was 14200 nM.

Consider `CN(c1ccc(F)cc1)c1nc(CN(C(=O)C(C)(C)C)c2ccc(F)cc2)cs1` [Compound 79, N-(4-Fluorophenyl)-N-{2-[(4-fluorophenyl)-methyl-amino]-thiazol-4-ylmethyl}-2,2-dimethyl-propionamide], for which the IC50 runs as follows: under setting [1], 100 nM; under setting [2], 300 nM.

Regarding `COc1ccc(N(C)c2nc(CN(C(=O)C(C)(C)C)c3ccc(F)cc3)cs2)cc1` [Compound 80, N-(4-Fluorophenyl)-N-{2-[(4-methoxy-phenyl)-methyl-amino]-thiazol-4-ylmethyl}-2,2-dimethyl-propionamide], the IC50 came to 600 nM under setting [1] and 2400 nM under setting [2].

As for `CN(c1ccc(F)cc1)c1nc(CN(C(=O)C(C)(C)C)c2ccc(F)cn2)cs1` [Compound 82, N-{2-[(4-Fluorophenyl)-methyl-amino]-thiazol-4-ylmethyl}-N-(5-fluoro-pyridin-2-yl)-2,2-dimethyl-propionamide], the half-inhibitory concentration (IC50) is, setting by setting: under setting [1], 2200 nM; under setting [2], 12100 nM.

Consider `CN(C)c1ccc(N(Cc2csc(N3CCCCC3)n2)C(=O)C(C)(C)C)cc1` [Compound 86, N-(4-Dimethylamino-phenyl)-2,2-dimethyl-N-(2-piperidin-1-yl-thiazol-4-ylmethyl)-propionamide], for which the IC50 is, setting by setting: under setting [1], 3100 nM; under setting [2], 12600 nM.

With `CCN(c1ccc(CN(C(=O)C(C)(C)C)c2ccc(F)cc2)cc1)C1CC1` [Compound 87, N-[4-(Cyclopropyl(ethyl)amino)-benzyl]-N-(4-fluorophenyl)-2,2-dimethyl-propionamide], the IC50 came to 1400 nM under setting [1] and 4200 nM under setting [2].

As to `CCN(CC)c1ccc(N(Cc2csc(N(C)c3ccc(F)cc3)n2)C(=O)C(C)(C)C)cc1` [Compound 88, N-(4-Diethylamino-phenyl)-N-{2-[(4-fluorophenyl)-methyl-amino]-thiazol-4-ylmethyl}-2,2-dimethyl-propionamide], the IC50 by setting is: under setting [1], 100 nM; under setting [2], 400 nM.

For `CN(C)c1ccc(N(Cc2csc(N(C)c3ccc(C(F)(F)F)cc3)n2)C(=O)C(C)(C)C)cc1` [Compound 89, N-(4-Dimethylamino-phenyl)-2,2-dimethyl-N-{2-[methyl-(4-trifluoromethyl-phenyl)-amino]-thiazol-4-ylmethyl}-propionamide], the IC50 worked out at 300 nM under setting [1] and 1100 nM under setting [2].

As to `CCN(CC)c1ccc(CN(C(=O)C(C)(C)CC)c2ccc(N(C)C)cc2)cc1` [Compound 90, N-(4-Diethylaminobenzyl)-N-(4-dimethylamino-phenyl)-2,2-dimethyl-butyramide], the IC50 reads like this: under setting [1], 800 nM; under setting [2], 2200 nM.

A word on the IC50: it is the point on the concentration scale where inhibition reaches its midpoint.

For the origin of these results see patent US20100267697A1, “ION CHANNEL MODULATORS” (Wyeth, priority 2006, published 2010).
